Experimental data reported in patent publication US9180212B2, “β-amyloid plaque imaging agents” (The Regents of the University of California, priority 2012, dated 2015).
“Also recorded” adds a separate entry of the source.

Assays:
amyloid plaques = target: T1, amyloid plaques (Homo sapiens, UniProt P05067); test: ^3H-PIB competition binding in human Alzheimers brain homogenate
T1 construct: target the polymeric form of the β-amyloid peptide that is associated with senile plaques; from tissue; host or cells: human Alzheimer's disease brain homogenate (post mortem)
T1 sequence (P05067 672-713 limits assumed): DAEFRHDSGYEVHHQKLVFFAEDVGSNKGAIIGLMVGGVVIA

[1] = target: T2, SP (senile plaques) in hippocampus of AD patients (Homo sapiens, UniProt P05067); test: In vitro autoradiography of human hippocampus slices (AD vs control), senile plaque imaging; format: binding; conditions: for Binding to SP present in AD brains compared to the normal controls (in words): autoradiography
T2 construct: target the polymeric form of the β-amyloid peptide that is associated with senile plaques; from tissue; host or cells: 7 micron frozen sections of hippocampus of AD patients and control brains (UCI-ADRC repository)
T2 sequence (P05067 672-713 limits assumed): as above
Description: Human post-mortem Studies: We used post mortem human brain specimens from the UCI-ADRC Brain tissue repository for in vitro experiments. Age and gender matched AD brain and control brain tissue were used. Control cases consisted of clinically assessed nondemented individuals ranging in age from 70-90 years of age. AD brain samples were selected for end-stage pathology (based upon comments by the neuropathologist and Braak & Braak stage of VI. We matched each AD case with a similarly aged control case. AD cases, were selected on the basis as having a clinic visit within 1 year of death. Frozen hippocampus and frontal cortex, regions vulnerable to AD pathology, were selected for these studies. Sections of the cerebellum were used as a measure of low/nonspecific binding. Chunks of frozen tissue were dissected for immunohistochemical and autoradiographic techniques, as well as for biochemical experiments.
Serial cryostat sections at 5-10 μm were used. The first set of sections was used to establish the extent of senile plaque and neurofibrillary tangle formation using immunohisto-chemistry and histological techniques. Antibodies against Aβ1-16, Aβ1-40 and Aβ1-42 were used to detect Aβ.
In vitro autoradiography studies were performed on 7 micron slices of hippocampus of AD patients (n=2) and control brains (n=2). Hippocampus slices were incubated with the radiotracer (10-25 μCi/cc) in 40% ethanol-water for ½ hour.
Binding to norepinephrine transporters (NET) were further evaluated in normal rats using PET/CT. Radiosynthesis was carried out by reacting 4-amino-4′-dimethylaminoazobenzene (1 mg/0.5 cc acetone for ^11C-TAZA) and 4-methylamino-4′-(N-methylamino)stilbene (1 mg/0.5 cc acetone for ^11C-Dalene) with 11C-methyltriflate prepared in the GE FXCPro synthesis unit. ^11C-Methyltriflate was trapped at −20° C., subsequently heated for 5 mins at 80° C. and purified using HPLC. In vitro autoradiography studies were performed on 7 micron slices of hippocampus of AD patients and control brains.
(§1) Slices were then washed and exposed on to phosphor screens and slides were analysed by Optiquant image analysis program for SP binding Digital light units/mm^2 (DLU/mm^2). Sprague-Dawley rats were scanned after IV injection of ^11C-TAZA and ^11C-Dalene in Inveon PET/CT and displacement studies were done with atomoxetine (1 mg/kg). PET images were analyzed using PMOD.

[2] = tested on: NET in brown adipose tissue (BAT); test: Rat PET/CT NET imaging in brown adipose tissue; format: in vivo, Sprague-Dawley rats; conditions: atomoxetine preinjection 1-2 mg/kg
Description: (§2) In still further experiments, binding/uptake of contemplated compounds to/by NET was investigated in adipose tissue, and especially brown adipose tissue. It should be appreciated that due to the innervation of brown adipose tissue (BAT) with neurotransmitter, norepinephrine is essential for regulation of thermogenesis, and thus has a role in obesity and diabetes. Norepinephrine acts by activating β3-adrenoceptor to increase BAT metabolic activity measurable using ^18F-FDG PET. Norepinephrine transporter (NET) inhibitors such as atomoxetine play an important role in BAT activity by increasing norepinephrine levels.
Male Sprague-Dawley rats were fasted for 24 hrs prior to ^18F-FDG administration. Rats were administered i.v. ˜0.3 mCi ^18F-FDG under 2% isoflurane anesthesia. The same rats were treated with atomoxetine 1 mg/kg, 30 mins before ^18F-FDG administration. Rats were awake for 60 mins and subsequently anesthetized for upper-body Inveon MicroPET/CT scan. To evaluate whether enhanced ^18F-FDG uptake in activated BAT could be reduced by pharmacologic interventions, propranolol ([…]) 5 mg/kg was given intraperitoneally in anesthetized rats, 30 minutes prior to atomoxetine administration. […] PET/CT data was analysed using IRW and PMOD.

[3] = tested on: norepinephrine transporters (NET); test: Rat brain PET with atomoxetine pre-injection (NET binding/uptake); format: in vivo, Sprague-Dawley rats
Description: Based on earlier experimental observations (not shown), the inventors contemplated that the compounds presented herein not only bind with high specificity to β-amyloid, but also with similar high specificity to the NET. To investigate binding to/uptake by the NET, the effect of atomoxetine (ATX, a selective norepinephrine reuptake inhibitor) on the kinetics of Dalene and TAZA was tested. More specifically, Sprague-Dawley rats (308-468 g) received two 90 min PET scans each on two separate days (1-4 weeks apart) with an Inveon scanner. On first day each rat received a baseline scan, one with [^11C]Dalene and the other with [^11C]TAZA (96±8 MBq). The second day each animal was pre-injected i.v. with a 50 μl bolus of ATX (1-2 mg/Kg), 17 min before [^11C]Dalene and 2 min before [^11C]TAZA (33±7 MBq). The images were reconstructed dynamically in 25 frames (4×0.5 min, 8×1 min, 5×2 min, 2×5 min, 6×10 min). Each subject received a CT scan that was used for attenuation and scatter correction. Images were normalized to Paxinos & Watson space via co-registration with an MR rat template. Common regions of interest were drawn on the MR template and placed on brainstem, thalamus (Tha), and midbrain (Mid), brain regions with highest uptake as well as anterior cingulate cortex area 1 (Cg1), region with low NET density and which was chosen as a reference based on previous studies. Time activity curves (TACs) from all regions were analyzed in PMOD using Logan non-invasive method with Cg1's k2′ parameter estimated by fitting of brainstem data to MRTM.
as §1, with “PMOD. […] Presence of SP in the AD brains were confirmed using 4G8 antibody immunostaining for Aβ-amyloid. […] Ratios of brain stem to cingulate gyms (used as reference region) was >2.” for “PMOD.”

[4] = cited from earlier work
[5] = tested on: brown adipose tissue (BAT) metabolic activity; test: ^18F-FDG PET/CT uptake in interscapular BAT of rats; format: in vivo, Sprague-Dawley rats
Description: as §2
Male Sprague-Dawley rats were fasted for 24 hrs prior to ^18F-FDG administration. Rats were administered i.v. ˜0.3 mCi ^18F-FDG under 2% isoflurane anesthesia. The same rats were treated with atomoxetine 1 mg/kg, 30 mins before ^18F-FDG administration. Rats were awake for 60 mins and subsequently anesthetized for upper-body Inveon MicroPET/CT scan. To evaluate whether enhanced ^18F-FDG uptake in activated BAT could be reduced by pharmacologic interventions, propranolol ([…]) 5 mg/kg was given intraperitoneally in anesthetized rats, 30 minutes prior to atomoxetine administration. For NET imaging, ^11C-TAZA (4-^11C-methylamino-4′-dimethylaminoazobenzene) and ^11C-Dalene (4-methylamino-4′-(N—^11C-methyl-N-methylamino)stilbene) were administered iv (˜0.5-3 mCi) and scanned in Inveon PET/CT for 90 mins. Competition studies were done with atomoxetine (preinjection, 1-2 mg/kg). PET/CT data was analysed using IRW and PMOD.

CNc1ccc(N=Nc2ccc(N(C)C)cc2)cc1 [TAZA]
IC50 (amyloid plaques; human Alzheimers brain homogenate tissue in 10% alcohol in PBS buffer, ^3H-PIB, read-out: binding affinity (IC50)): 12.8 nM
times better in binding to amyloid plaques compared to PIB (amyloid plaques; human brain tissue, from IC50 values): ~10 times

CN(C)c1ccc(C=Cc2ccc(N[11CH3])cc2)cc1 [^11C-Dalene, 4-^11C-methylamino-4′-(N,N-dimethylamino)stilbene]
Displacement of radiotracer by unlabeled PIB (in words) ([1]; 10 μM PIB, hippocampus slices): not complete; also recorded: displaced
Binding to SP present in AD brains compared to the normal controls (in words) ([1]; hippocampus slices): bound specifically
reduction of IBAT binding by atomoxetine [2]: 35%
Effect of atomoxetine on binding in NET brain regions (in words) ([3]; rat, in vivo): reduced the binding
baseline BPND (Mid) ([3]; rat, in vivo): 0.91
baseline BPND (Tha) ([3]; rat, in vivo): 0.86
baseline BPND (brainstem) ([3]; rat, in vivo): 1.42
change in BPND in ATX condition (Mid) ([3]; rat, in vivo): 5.4%
change in BPND in ATX condition (Tha) ([3]; rat, in vivo): −12%
change in BPND in ATX condition (brainstem) ([3]; rat, in vivo): −18%
peak uptake in ATX condition relative to control ([3]; rat, in vivo): 14 fold
time at which ratio target/reference reached a constant level ([3]; rat, in vivo): 20 min

CN(C)c1ccc(N=Nc2ccc(N[11CH3])cc2)cc1 [^11C-TAZA, 4-^11C-methylamino-4′-dimethylamino-azobenzene]
Displacement of radiotracer by PIB ([1]; 10 μM PIB, hippocampus slices): > 80%
Displacement of radiotracer by unlabeled PIB (in words) ([1]; 10 μM PIB, hippocampus slices): displaced
Binding to SP compared with the other radiotracers (in words) ([1]; ^11C-TAZA vs ^11C-Dalene and ^11C-PIB): higher specific binding component; also recorded: highest binding
Binding to SP present in AD brains compared to the normal controls (in words) ([1]; hippocampus slices): bound specifically
reduction of IBAT binding by atomoxetine [2]: 60%
change in BPND in ATX condition (brainstem) ([3]; ATX 1-2 mg/Kg i.v. pre-injection): 11%
Effect of atomoxetine on binding in NET brain regions (in words) ([3]; atomoxetine 1 mg/kg): reduced the binding
time at which ratio target/reference reached a constant level ([3]; baseline condition, post tracer injection): 20 min
baseline BPND (brainstem) ([3]; baseline scan, Logan non-invasive method, Cg1 reference): 0.7
peak uptake in ATX condition relative to control ([3]; brainstem, ATX 1-2 mg/Kg i.v. pre-injection): 5 fold
baseline BPND (Mid) ([3]; midbrain, baseline scan, Cg1 reference): 0.50
change in BPND in ATX condition (Mid) ([3]; midbrain, ATX 1-2 mg/Kg i.v. pre-injection): 18%
baseline BPND (Tha) ([3]; thalamus, baseline scan, Cg1 reference): 0.41
change in BPND in ATX condition (Tha) ([3]; thalamus, ATX 1-2 mg/Kg i.v. pre-injection): 6%

CC(=C(C#N)C#N)c1ccc2cc(N(C)CC[18F])ccc2c1 [^18F-FDDNP, 2-(1-{6-[(2-[^18F]fluoroethyl)(methyl)amino]-2-naphtyl}ethylidene)malonitrile]
log P [4]: > 3

CC(C)NCC(O)COc1cccc2ccccc12 (centres unmarked) [Propranolol, propranolol]
effect on average ^18F-FDG uptake of IBAT (in words) ([5]; propranolol 5 mg/kg intraperitoneally, 30 minutes prior to atomoxetine): reduced

CNCC[C@@H](Oc1ccccc1C)c1ccccc1 [Atomoxetine, atomoxetine]
increase of average ^18F-FDG uptake of IBAT compared to controls ([5]; atomoxetine 1 mg/kg, 30 mins before ^18F-FDG): > 15 times
average ^18F-FDG uptake of IBAT ([5]; atomoxetine 1 mg/kg, 30 mins before ^18F-FDG, controls 23.9±8.7): 365±170 kBq/cc
